Results: PubChem BioAssay (NCI)
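Compound exposure: 48 hours, 5 concentrations, 96-well plates. TGI: concentration producing complete growth inhibition.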

Tests used:
Experiment in all cases: DTP human tumour cell line panel, 48 h
K-562 leukemia = test system: K-562 leukemia
PC-3 prostate = test system: PC-3 prostate
MCF7 breast = test system: MCF7 breast
LOX IMVI melanoma = test system: LOX IMVI melanoma
HCT-15 colon = test system: HCT-15 colon
TK-10 renal = test system: TK-10 renal
DU-145 prostate = test system: DU-145 prostate
BT-549 breast = test system: BT-549 breast
UO-31 renal = test system: UO-31 renal
SW-620 colon = test system: SW-620 colon
NCI-H226 lung = test system: NCI-H226 lung
OVCAR-8 ovarian = test system: OVCAR-8 ovarian
U251 CNS = test system: U251 CNS
MDA-MB-435 = test system: MDA-MB-435
M14 melanoma = test system: M14 melanoma
UACC-257 melanoma = test system: UACC-257 melanoma
OVCAR-4 ovarian = test system: OVCAR-4 ovarian
MOLT-4 leukemia = test system: MOLT-4 leukemia
OVCAR-3 ovarian = test system: OVCAR-3 ovarian
SK-OV-3 ovarian = test system: SK-OV-3 ovarian
NCI-H23 lung = test system: NCI-H23 lung
KM12 colon = test system: KM12 colon
SK-MEL-2 melanoma = test system: SK-MEL-2 melanoma
IGROV1 ovarian = test system: IGROV1 ovarian
SNB-19 CNS = test system: SNB-19 CNS
ACHN renal = test system: ACHN renal
HCT-116 colon = test system: HCT-116 colon
SK-MEL-28 melanoma = test system: SK-MEL-28 melanoma
HCC-2998 colon = test system: HCC-2998 colon
UACC-62 melanoma = test system: UACC-62 melanoma
A498 renal = test system: A498 renal
HOP-92 NSCLC = test system: HOP-92 NSCLC
SNB-75 CNS = test system: SNB-75 CNS
EKVX NSCLC = test system: EKVX NSCLC
T-47D breast = test system: T-47D breast
MDA-N = test system: MDA-N
786-0 renal = test system: 786-0 renal
COLO 205 colon = test system: COLO 205 colon
A549 NSCLC = test system: A549 NSCLC
SF-539 CNS = test system: SF-539 CNS
CCRF-CEM leukemia = test system: CCRF-CEM leukemia
MDA-MB-231 breast = test system: MDA-MB-231 breast
SK-MEL-5 melanoma = test system: SK-MEL-5 melanoma
OVCAR-5 ovarian = test system: OVCAR-5 ovarian
CAKI-1 renal = test system: CAKI-1 renal
MALME-3M melanoma = test system: MALME-3M melanoma
SN12C renal = test system: SN12C renal
HL-60(TB) leukemia = test system: HL-60(TB) leukemia
NCI/ADR-RES ovarian = test system: NCI/ADR-RES ovarian
SF-295 CNS = test system: SF-295 CNS
NCI-H460 lung = test system: NCI-H460 lung
HOP-62 NSCLC = test system: HOP-62 NSCLC
HS 578T breast = test system: HS 578T breast
HT29 colon = test system: HT29 colon
NCI-H522 lung = test system: NCI-H522 lung
RXF 393 renal = test system: RXF 393 renal
RPMI-8226 leukemia = test system: RPMI-8226 leukemia
SF-268 CNS = test system: SF-268 CNS

## O=C(CCN1CCOCC1)c1ccc(Oc2ccc(F)cc2)cc1
K-562 leukemia
  TGI: 51.4 µM
PC-3 prostate
  TGI: 34.2 µM
MCF7 breast
  TGI: 40.4 µM
LOX IMVI melanoma
  TGI: 48.5 µM
HCT-15 colon
  TGI: 36.5 µM
TK-10 renal
  TGI: 32.5 µM
DU-145 prostate
  TGI: > 100 µM
BT-549 breast
  TGI: 35.9 µM
UO-31 renal
  TGI: 38.3 µM
SW-620 colon
  TGI: 62.6 µM
NCI-H226 lung
  TGI: 78 µM
OVCAR-8 ovarian
  TGI: 41.7 µM
U251 CNS
  TGI: > 100 µM
MDA-MB-435
  TGI: > 100 µM
M14 melanoma
  TGI: 38.3 µM
UACC-257 melanoma
  TGI: 32.9 µM
OVCAR-4 ovarian
  TGI: > 100 µM
MOLT-4 leukemia
  TGI: 55.2 µM
OVCAR-3 ovarian
  TGI: 50.7 µM
SK-OV-3 ovarian
  TGI: > 100 µM
NCI-H23 lung
  TGI: 70.4 µM
KM12 colon
  TGI: 32.6 µM
SK-MEL-2 melanoma
  TGI: 57.1 µM
IGROV1 ovarian
  TGI: 39.4 µM
SNB-19 CNS
  TGI: > 100 µM
ACHN renal
  TGI: 32.1 µM
HCT-116 colon
  TGI: 44.2 µM
SK-MEL-28 melanoma
  TGI: 52.2 µM
HCC-2998 colon
  TGI: > 100 µM
UACC-62 melanoma
  TGI: 37 µM
A498 renal
  TGI: > 100 µM
HOP-92 NSCLC
  TGI: 49.5 µM
SNB-75 CNS
  TGI: 46.2 µM
EKVX NSCLC
  TGI: 36.9 µM
T-47D breast
  TGI: 42.6 µM
MDA-N
  TGI: 52.3 µM
786-0 renal
  TGI: 30.8 µM
COLO 205 colon
  TGI: 47 µM
A549 NSCLC
  TGI: > 100 µM
SF-539 CNS
  TGI: 38.7 µM
CCRF-CEM leukemia
  TGI: 57.1 µM
MDA-MB-231 breast
  TGI: 39 µM
SK-MEL-5 melanoma
  TGI: > 100 µM
OVCAR-5 ovarian
  TGI: 54.2 µM
CAKI-1 renal
  TGI: 33 µM
MALME-3M melanoma
  TGI: 40.9 µM
SN12C renal
  TGI: > 100 µM
HL-60(TB) leukemia
  TGI: 78.7 µM
NCI/ADR-RES ovarian
  TGI: 69 µM
SF-295 CNS
  TGI: > 100 µM
NCI-H460 lung
  TGI: > 100 µM
HOP-62 NSCLC
  TGI: > 100 µM
HS 578T breast
  TGI: 40.8 µM
HT29 colon
  TGI: 34.2 µM

## CCOP(=O)(CN1CCNCCN(CP(=O)(OCC)OCC)CC1)OCC
K-562 leukemia
  TGI: > 100 µM
PC-3 prostate
  TGI: > 100 µM
MCF7 breast
  TGI: > 100 µM
NCI-H522 lung
  TGI: > 100 µM
LOX IMVI melanoma
  TGI: > 100 µM
HCT-15 colon
  TGI: > 100 µM
TK-10 renal
  TGI: > 100 µM
DU-145 prostate
  TGI: > 100 µM
BT-549 breast
  TGI: > 100 µM
UO-31 renal
  TGI: > 100 µM
SW-620 colon
  TGI: > 100 µM
NCI-H226 lung
  TGI: > 100 µM
OVCAR-8 ovarian
  TGI: > 100 µM
U251 CNS
  TGI: > 100 µM
MDA-MB-435
  TGI: > 100 µM
M14 melanoma
  TGI: > 100 µM
UACC-257 melanoma
  TGI: > 100 µM
OVCAR-4 ovarian
  TGI: > 100 µM
MOLT-4 leukemia
  TGI: > 100 µM
OVCAR-3 ovarian
  TGI: > 100 µM
SK-OV-3 ovarian
  TGI: > 100 µM
NCI-H23 lung
  TGI: > 100 µM
KM12 colon
  TGI: > 100 µM
SK-MEL-2 melanoma
  TGI: > 100 µM
RXF 393 renal
  TGI: > 100 µM
IGROV1 ovarian
  TGI: > 100 µM
SNB-19 CNS
  TGI: > 100 µM
ACHN renal
  TGI: > 100 µM
HCT-116 colon
  TGI: > 100 µM
SK-MEL-28 melanoma
  TGI: > 100 µM
UACC-62 melanoma
  TGI: > 100 µM
RPMI-8226 leukemia
  TGI: > 100 µM
A498 renal
  TGI: > 100 µM
HOP-92 NSCLC
  TGI: > 100 µM
SNB-75 CNS
  TGI: > 100 µM
EKVX NSCLC
  TGI: > 100 µM
T-47D breast
  TGI: > 100 µM
MDA-N
  TGI: > 100 µM
786-0 renal
  TGI: > 100 µM
COLO 205 colon
  TGI: > 100 µM
A549 NSCLC
  TGI: > 100 µM
SF-539 CNS
  TGI: > 100 µM
CCRF-CEM leukemia
  TGI: > 31.6 µM
MDA-MB-231 breast
  TGI: > 100 µM
SF-268 CNS
  TGI: > 100 µM
SK-MEL-5 melanoma
  TGI: > 100 µM
OVCAR-5 ovarian
  TGI: > 100 µM
CAKI-1 renal
  TGI: > 100 µM
MALME-3M melanoma
  TGI: > 30.4 µM
SN12C renal
  TGI: > 100 µM
HL-60(TB) leukemia
  TGI: > 100 µM
NCI/ADR-RES ovarian
  TGI: > 100 µM
SF-295 CNS
  TGI: > 100 µM
NCI-H460 lung
  TGI: > 100 µM
HOP-62 NSCLC
  TGI: > 100 µM
HS 578T breast
  TGI: > 100 µM
HT29 colon
  TGI: > 100 µM
